What was measured:
[1] = test system: SH-SY5Y human neuroblastoma cells; test: LDH and MTT cell viability assays; type: cell-based; conditions: 5 h; for concentration near and above which cell viability decreased: compared to DMSO or untreated controls; for cell toxicity: range of concentrations studied (0.001 µM to 1 mM)
Experimental: BK50118-B and BK50118-C (Figure 2C,D) decreased cell viability near and above 100 μM compared to DMSO or untreated controls. CL3-499 (Figure 2G) decreased cell viability near and above 1 mM compared to DMSO or untreated controls.
(§1) SH-SY5Y cells were transiently transfected for 24 h with human wild-type α-synuclein using Fugene HD transfection reagent (Promega, E2311, Madison, WI, USA) according to manufacturer’s protocol. Cells were treated with 1 mM, 0.1 mM, 0.01 mM, 1 µM, 0.1 µM, 0.01 µM and 0.001 µM of each novel compounds (BK50118-A, BK50118-B, BK50118-C, CL3-499, CL3-512 and CL3-514) dissolved in DMSO for 5 h. Cells were then harvested on ice by removing culture medium and adding 0.2 mL 1x sodium-tris, EDTA, NP-40 (STEN) buffer (50 mM Tris (pH 7.6), 150 mM NaCl, 2 mM EDTA, 0.2 % NP-40, 0.2 % with Halt protease and phosphatase inhibitor solution (ThermoFisher, 78446). Cells were detached with a cell scraper and collected into centrifuge tubes and incubated at 4 °C for 30 min with agitation. Samples were stored at −80 °C and used for ELISA analyses. For cell viability assay, SHSY-5Y cells stably expressing human wild-type alpha-synuclein were treated with 1 mM, 0.1 mM, 0.01 mM, 1 µM, 0.1 µM, 0.01 µM and 0.001 µM of each novel compound (BK50118-A, BK50118-B, BK50118-C, CL3-499, CL3-512 and CL3-514) dissolved in DMSO for 5 h. Cell viability was determined via lactate dehydrogenase assay on culture media (Thermofisher, 88954) and MTT assay on plated cells (Thermofisher, V13154).

USP13 [2] = molecular target: T1, USP13 (Homo sapiens, UniProt Q92995); test: USP13 activity via functional ELISA in alpha-synuclein transfected SH-SY5Y cells; type: cell-based; conditions: SH-SY5Y cells transfected with human alpha-synuclein, 5 h, read-out: Estimated IC50 to USP13
T1 construct: ELISA for USP13 (MyBioSource, Cat # MBS9335287, San Diego, CA, USA); endogenous in cells; host or cells: human SH-SY5Y neuroblastoma cells transfected with human wild-type alpha-synuclein
T1 sequence (Q92995 1-863): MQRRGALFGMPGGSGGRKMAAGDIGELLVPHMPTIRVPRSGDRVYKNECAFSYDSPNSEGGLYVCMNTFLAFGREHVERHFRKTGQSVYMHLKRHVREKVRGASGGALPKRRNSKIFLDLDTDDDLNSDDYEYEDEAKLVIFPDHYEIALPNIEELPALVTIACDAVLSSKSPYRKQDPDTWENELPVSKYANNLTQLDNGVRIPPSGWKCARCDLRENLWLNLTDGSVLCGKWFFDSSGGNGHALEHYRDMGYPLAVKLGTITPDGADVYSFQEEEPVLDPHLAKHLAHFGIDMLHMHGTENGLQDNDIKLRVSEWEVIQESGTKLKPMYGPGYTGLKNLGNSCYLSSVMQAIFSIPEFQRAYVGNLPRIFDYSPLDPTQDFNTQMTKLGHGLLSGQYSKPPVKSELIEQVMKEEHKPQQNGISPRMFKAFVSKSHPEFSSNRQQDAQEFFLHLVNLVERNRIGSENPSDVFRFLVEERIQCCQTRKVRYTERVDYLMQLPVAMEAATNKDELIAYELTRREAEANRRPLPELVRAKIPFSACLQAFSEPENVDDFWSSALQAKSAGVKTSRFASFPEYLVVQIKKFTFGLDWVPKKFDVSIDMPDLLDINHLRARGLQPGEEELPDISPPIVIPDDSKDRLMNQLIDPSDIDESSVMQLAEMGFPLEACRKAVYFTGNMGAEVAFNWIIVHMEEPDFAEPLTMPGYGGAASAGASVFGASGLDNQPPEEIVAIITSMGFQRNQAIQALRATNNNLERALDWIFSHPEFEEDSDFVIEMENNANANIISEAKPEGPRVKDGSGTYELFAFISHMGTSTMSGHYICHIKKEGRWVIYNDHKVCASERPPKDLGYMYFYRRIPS
Experimental: Stably transfected human neuroblastoma SH-SY5Y cells with human wild-type alpha-synuclein were treated with 1 mM, 100 µM, 10 µM, 1 µM, 0.1 µM, 0.01 µM and 0.001 µM of each of BK50118-A, BK50118-B, BK50118-C, CL3-499, CL3-512 and CL3-514 dissolved in an equivalent volume of DMSO for 5 h. […] The other 5 compounds were also able to lower alpha-synuclein levels but with less potency (Figure 3H,I,K–M).
as §1
The ELISA for USP13 (MyBioSource, Cat # MBS9335287, San Diego, CA, USA), Human alpha-synuclein (Biolegend, Cat # 844101, San Diego, CA, USA) and specific p-Tau ser396 (Invitrogen, KHB7031, Waltham, MA, USA) were performed on cell or brain tissue extracts as described above according to manufacturers’ protocol.
All statistical analyses were performed using GraphPad Prism version 5.0 (GraphPad software, Inc, San Diego, CA, USA). Two-tailed student’s t-test was used in comparison of means of two groups. Ordinary one-way analysis of variance (ANOVA) followed by Newman–Keuls or Dunnett comparison post hoc tests were used in comparison of means of multiple groups. Asterisks denote actual p-value significances (* < 0.05, ** < 0.01, *** < 0.001 and **** < 0.0001), and N is the number of animals or the number of independent experiments (cell culture) per group. Unless otherwise indicated, data are expressed as Mean ± SD. IC50 to USP13 levels was also estimated using GraphPad Prism version 5.0 (GraphPad software, Inc, San Diego, CA, USA).

USP10 = test system: USP10; set-up: method as in PMID 21962518; conditions: cited from earlier work
USP13 [3] = test system: USP13; set-up: method as in PMID 21962518; conditions: cited from earlier work
[4] = set-up: method as in PMID 21962518; conditions: cited from earlier work

In the case of `Fc1ccc2nccc(Nc3ccccc3)c2c1` [BK50118-B, 6-fluoro-N-phenylquinolin-4-amine], the “concentration near and above which cell viability decreased” value [1] is reported as no less than 100 µM and the IC50 (USP13 [2]) is reported as 2.13 nM.
For `Fc1ccc(CNc2ncnc3ccc(F)cc23)cc1` [Spautin-1], the IC50 (USP10) is given as 600 to 700 nM, the IC50 (USP13 [3]) is given as 600 to 700 nM and the “blood-brain barrier (BBB) penetration” value [4] is given as “does not cross the blood–brain barrier (BBB)”.
In the case of `Fc1ccc2nccc(NCc3ccccc3)c2c1` [CL3-499, N-benzyl-6-fluoroquinolin-4-amine], the “concentration near and above which cell viability decreased” value [1] is reported as no less than 1000 µM and the IC50 (USP13 [2]) is reported as 0.29 nM.
For `COC(=O)[C@H](Cc1ccc(O)cc1)Nc1c([N+](=O)[O-])c(=O)oc2ccccc12` [CL3-514, (S)-methyl (3-nitro-2-oxo-2H-chromen-4-yl)-tyrosinate], the cell toxicity [1] was “did not show cell toxicity” and the IC50 (USP13 [2]) was 0.61 nM.
For `c1ccc(Nc2ccnc3ccsc23)cc1` [BK50118-A, N-phenylthieno[3,2-b]pyridin-7-amine], the “concentration near and above which cell viability decreased” value [1] was no less than 0.1 µM and the IC50 (USP13 [2]) was 0.11 nM.
In the case of `COC(=O)[C@H](Cc1ccccc1)Nc1c([N+](=O)[O-])c(=O)oc2ccccc12` [CL3-512, (S)-methyl (3-nitro-2-oxo-2H-chromen-4-yl)-phenylalaninate], the cell toxicity [1] is reported as “did not show cell toxicity” and the IC50 (USP13 [2]) is reported as 0.27 nM.
